Assay in all cases: DTP human tumour cell line panel, 48 h
Assay [1] relates to HCT-116 colon.
Assay [2] relates to OVCAR-4 ovarian.
Assay [3] relates to EKVX NSCLC.
Assay [4] relates to CCRF-CEM leukemia.
The subject of assay [5] is HCT-15 colon.
Assay [6] has as its system NCI-H460 lung.
The subject of assay [7] is SK-MEL-2 melanoma.
Assay [8] concerns K-562 leukemia.
For assay [9], the system named is KM12 colon.
Assay [10] relates to MALME-3M melanoma.
The test system of assay [11] is SF-539 CNS.

Molecules are shown by their SMILES.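 Briefly, cells in 96-well plates were exposed to five compound concentrations for 48 h, and endpoints were estimated by linear interpolation. TGI: total growth inhibition.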 Bounds are passed on as bounds.

As for `Cc1ccc(C(C)C)c(OCC(=O)N/N=C/c2c[nH]c3ccc(Br)cc23)c1`, the TGI came out at 11 µM in [1]; 13.6 µM in assay [2]; 11.1 µM in assay [3]; 7 µM in assay [4]; 14.9 µM in assay [5]; 6.4 µM in [6]. Besides, the TGI in [7] was 7.22 µM; in assay [8], 11.4 µM; in assay [9] it was 6.3 µM; in assay [10], 21.8 µM; in assay [11] it was 4 µM.
In the case of `Nc1nc(Cl)c(N)c(NCC2(CO)CCC(CCc3ccccc3)C2)n1` (stereo not given), the TGI in assay [1] was 31.3 µM; in [2] it was 77.5 µM; in assay [3], greater than 69.9 µM; in [4], 48.8 µM; in assay [5], 41.8 µM; in assay [6], 32.2 µM. The TGI in assay [7] amounted to 31.7 µM; in [8] it was 48 µM; in assay [9] it was 28.9 µM; in assay [10], 30.3 µM; in assay [11] it was 33.7 µM.
`CSCC(CO)NC(=O)/C=C/c1c(C)[nH]c(=O)[nH]c1=O` (stereo not given): the TGI in assay [1] was greater than 875 µM; in [2] it was 389 µM; in [3], 872 µM; in assay [4], greater than 875 µM; in assay [5], greater than 875 µM; in [6], greater than 875 µM. Besides, the TGI in assay [7], in [8], in assay [9], in assay [10] and in assay [11] was greater than 875 µM in each case.
As for `Clc1cc(OCc2nn3c(Cc4ccccc4)nnc3s2)c(Cl)cc1OCc1nn2c(Cc3ccccc3)nnc2s1`, the TGI in assay [1], in [2], in assay [3], in assay [4], in assay [5] and in [6] was greater than 100 µM throughout. In addition, the TGI in assay [7] was greater than 100 µM; in assay [8], 24.2 µM; in assay [9], greater than 100 µM; in [10] it was greater than 100 µM; in assay [11], greater than 100 µM.
On to `COc1ccc(CCc2ccc3c(c2)OCO3)cc1`, for which the total growth inhibition concentration (TGI) in assay [1], in [2], in [3], in assay [4], in [5] and in [6] was greater than 100 µM each time. Besides, the concentration for total growth inhibition (TGI) is 92.4 µM in assay [7]; greater than 100 µM in assay [8]; greater than 100 µM in assay [9]; greater than 100 µM in [10]; greater than 100 µM in assay [11].
As to `c1ccc2c(c1)SCCc1cn[nH]c1-2`, the TGI in assay [1], in [2], in assay [3], in assay [4], in assay [5] and in assay [6] was greater than 100 µM in each case. Moreover, the TGI in assay [7], in [8], in [9], in assay [10] and in assay [11] was greater than 100 µM throughout.
For the compound `O=C1C(c2c(O)[nH]c3ccc(Cl)cc23)=Nc2ccccc21`, the TGI in assay [1] was 5.18 µM; in [2], 5.42 µM; in assay [3] it was greater than 53.1 µM; in [4], greater than 100 µM; in assay [5] it was greater than 100 µM; in assay [6], greater than 100 µM. For the same compound, the TGI in assay [7] was greater than 26.3 µM; in assay [8] it was greater than 100 µM; in assay [9], greater than 100 µM; in assay [10], greater than 58.4 µM; in assay [11] it was 17.9 µM.
As for `NNC(=O)CCc1ccc2ccc3ccccc3c2c1`, the TGI is greater than 100 µM in [1]; greater than 100 µM in [2]; 97.9 µM in assay [3]; greater than 100 µM in assay [4]; greater than 100 µM in [5]; greater than 100 µM in assay [6]. Besides, the TGI in assay [7], in [8], in assay [9], in assay [10] and in [11] was greater than 100 µM in each case.
Regarding `O=C(Sc1n[nH]c(=O)[nH]c1=O)c1cccc2nc3ccccc3nc12`, the TGI in assay [1], in [2], in assay [3], in assay [4], in [5] and in assay [6] was greater than 100 µM in each case. Also, the TGI in assay [7] is greater than 100 µM; in assay [8], greater than 100 µM; in [9], greater than 100 µM; in [10] it was 24.8 µM; in assay [11], greater than 100 µM.
For `c1ccc(C2=NN=C3C(c4ccccc4)=Nc4ccccc4N3C2)cc1`, the TGI in assay [1] is greater than 95.6 µM; in assay [2], 42 µM; in [3], greater than 68.6 µM; in assay [4], 20.2 µM; in assay [5], greater than 100 µM; in [6], 23.5 µM. Further, the TGI in [7] was greater than 82.2 µM; in [8], greater than 100 µM; in assay [9], greater than 100 µM; in [10] it was 97.9 µM; in assay [11], greater than 100 µM.
As for `CO/C=C1\OC(=O)C=C1OC`, the TGI in [1], in assay [2], in assay [3], in assay [4], in [5] and in assay [6] was greater than 100 µM throughout. The total growth inhibition concentration (TGI) in assay [7], in assay [8], in assay [9], in [10] and in assay [11] was greater than 100 µM in each case.
`CC(C)(C)C1=CC(=C2C=Cc3cc(O)ccc3O2)C=C(C(C)(C)C)C1=O`: the TGI stood at 2.43 µM in assay [1]; 3.04 µM in assay [2]; 3.5 µM in assay [3]; 3.45 µM in assay [4]; 5.51 µM in [5]; 2.7 µM in [6]. Moreover, the TGI came out at 3.09 µM in assay [7]; 8.51 µM in assay [8]; 3.73 µM in [9]; 3.16 µM in assay [10]; 3.4 µM in assay [11].
Take `O=C(Cn1c(C(=O)/C=C/c2ccc(Cl)cc2)nc2ccccc21)c1ccc(Cl)cc1`: the TGI in assay [1] amounted to 26.2 µM; in [2], 50.7 µM; in assay [3] it was 64.5 µM; in assay [4] it was 8.45 µM; in assay [5], 51.8 µM; in [6], 28.9 µM. In addition, the TGI is 39.5 µM in assay [7]; greater than 100 µM in assay [8]; 27.6 µM in assay [9]; 52.6 µM in assay [10]; 38.6 µM in [11].
For `Nc1ccc(Cn2ccc3c4c(N)nc(N)nc4ccc32)cc1`, the TGI turned out to be 1.5 µM in assay [1]; 4.75 µM in assay [2]; 23.1 µM in assay [3]; 2.71 µM in assay [4]; 17.6 µM in assay [5]; 5.58 µM in assay [6]. Further, the TGI in assay [7] worked out at 5.15 µM; in assay [8], 2.44 µM; in assay [9], 12.2 µM; in assay [10], 7.04 µM; in assay [11] it was 4.15 µM.
For `CC1(C)N=C(c2ccccc2)SC12S[C@@H]1CCCC[C@H]1S2`, the TGI in assay [1], in assay [2], in assay [3], in assay [4], in assay [5] and in assay [6] was greater than 100 µM each time. The TGI in assay [7], in [8], in assay [9], in assay [10] and in assay [11] was greater than 100 µM each time.
For `N#C/C(=C\c1ccc([N+](=O)[O-])o1)c1n[nH]c(Cc2ccccc2)n1`, the TGI in assay [1] was found to be 0.668 µM; in assay [2], 3.55 µM; in assay [3], 8.31 µM; in assay [4], 1.81 µM; in assay [6], 12.2 µM; in assay [7], 4.34 µM. For the same compound, the TGI was greater than 22.3 µM in [8], 6.69 µM in assay [9], 4.4 µM in assay [10] and 5.78 µM in assay [11].

The values are drawn from PubChem BioAssay (NCI).
